{"source": "patent US20230085307A1", "about": "“PYRIDAZINONE COMPOUND AND HERBICIDE” (NISSAN CHEMICAL CORPORATION, priority 2019, published 2023)", "key": {"[1]": {"system": "late watergrass", "assay": "Test Example 1: herbicidal activity, application before weed generation under submerged conditions (Table 16, symbol A)", "type": "in vivo, late watergrass (Echinochloa oryzicola)", "conditions": "320 g/ha applied herbicide", "procedure,_shortened": "(§1)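 Emulsion formulation, water-diluted to set dose, was put onto the flooded surface (4 cm depth, alluvial soil) the same day weeds were sown and 2.5-leaf rice transplanted. After 3 weeks at 25-30 °C under glass, each species was rated 0 (≤5% kill) to 5 (≥90% kill).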"}, "[2]": {"system": "Japanese bulrush", "assay": "Test Example 1: herbicidal activity, application before weed generation under submerged conditions (Table 16, symbol B)", "type": "in vivo, Japanese bulrush (Schoenoplectus juncoides)", "conditions": "320 g/ha applied herbicide", "procedure,_shortened": "as §1"}, "[3]": {"system": "oval-leafed pondweed", "assay": "Test Example 1: herbicidal activity, application before weed generation under submerged conditions (Table 16, symbol C)", "type": "in vivo, oval-leafed pondweed (Monochoria vaginalis)", "conditions": "320 g/ha applied herbicide", "procedure,_shortened": "as §1"}, "[4]": {"system": "barnyard grass", "assay": "Test Example 3: herbicidal effect by foliage application, Wagner pot (Table 18, symbol H)", "type": "in vivo, barnyard grass (Echinochloa crus-galli)", "conditions": "320 g/ha", "procedure,_shortened": "(§2)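 Plants were sown in alluvial soil held under 0.1–0.5 cm standing water and grown 14 days in a greenhouse at 25–30 °C. An emulsifiable formulation, water-diluted to the set dose, was then sprayed onto the foliage, and effects were scored three weeks later using previously defined criteria.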"}, "[5]": {"system": "Chinese sprangletop", "assay": "Test Example 3: herbicidal effect by foliage application, Wagner pot (Table 18, symbol D)", "type": "in vivo, chinese sprangletop (Leptochloa chinensis)", "conditions": "320 g/ha", "procedure,_shortened": "as §2"}, "[6]": {"system": "rice flat sedge", "assay": "Test Example 3: herbicidal effect by foliage application, Wagner pot (Table 18, symbol E)", "type": "in vivo, rice flat sedge (Cyperus iria)", "conditions": "320 g/ha", "procedure,_shortened": "as §2"}, "[7]": {"system": "southern crabgrass", "assay": "Test Example 4: herbicidal effect by soil treatment (Table 19, symbol F)", "type": "in vivo, southern crabgrass (Digitaria ciliaris)", "conditions": "AAH 320 g/ha", "procedure,_shortened": "(§3)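 Soil-surface application: an emulsion agent diluted with water to the predetermined dose is sprayed uniformly over seeds lying under roughly 1.5 cm of sterilized diluvial soil. Boxes stay in a greenhouse at 25° C. to 30° C. Three weeks later, each species is graded on previously defined criteria.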"}, "[8]": {"system": "green foxtail", "assay": "Test Example 4: herbicidal effect by soil treatment (Table 19, symbol G)", "type": "in vivo, green foxtail (Setaria viridis)", "conditions": "AAH 320 g/ha", "procedure,_shortened": "as §3"}, "[9]": {"system": "barnyard grass", "assay": "Test Example 4: herbicidal effect by soil treatment (Table 19, symbol H)", "type": "in vivo, barnyard grass (Echinochloa crus-galli)", "conditions": "AAH 320 g/ha", "procedure,_shortened": "as §3"}, "[10]": {"system": "wild oat", "assay": "Test Example 4: herbicidal effect by soil treatment (Table 19, symbol I)", "type": "in vivo, wild oat (Avena fatua)", "conditions": "AAH 320 g/ha", "procedure,_shortened": "as §3"}, "[11]": {"system": "Italian ryegrass", "assay": "Test Example 4: herbicidal effect by soil treatment (Table 19, symbol K)", "type": "in vivo, Italian ryegrass (Lolium multiflorum)", "conditions": "AAH 320 g/ha", "procedure,_shortened": "as §3"}, "[12]": {"system": "windgrass", "assay": "Test Example 4: herbicidal effect by soil treatment (Table 19, symbol L)", "type": "in vivo, windgrass (Apera spica-venti)", "conditions": "AAH 320 g/ha", "procedure,_shortened": "as §3"}, "[13]": {"system": "velvetleaf", "assay": "Test Example 4: herbicidal effect by soil treatment (Table 19, symbol M)", "type": "in vivo, velvetleaf (Abutilon theophrasti)", "conditions": "AAH 320 g/ha", "procedure,_shortened": "as §3"}, "[14]": {"system": "redroot pigweed", "assay": "Test Example 4: herbicidal effect by soil treatment (Table 19, symbol N)", "type": "in vivo, redroot pigweed (Amaranthus retroflexus)", "conditions": "AAH 320 g/ha", "procedure,_shortened": "as §3"}, "[15]": {"system": "lambsquarters", "assay": "Test Example 4: herbicidal effect by soil treatment (Table 19, symbol O)", "type": "in vivo, lambsquarters (Chenopodium album)", "conditions": "AAH 320 g/ha", "procedure,_shortened": "as §3"}, "[16]": {"system": "chickweed", "assay": "Test Example 4: herbicidal effect by soil treatment (Table 19, symbol P)", "type": "in vivo, common chickweed (Stellaria media)", "conditions": "AAH 320 g/ha", "procedure,_shortened": "as §3"}, "[17]": {"system": "persian speedwell", "assay": "Test Example 4: herbicidal effect by soil treatment (Table 19, symbol R)", "type": "in vivo, Persian speedwell (Veronica persica)", "conditions": "AAH 320 g/ha", "procedure,_shortened": "as §3"}, "[18]": {"system": "southern crabgrass", "assay": "Test Example 5: herbicidal effect by foliage application, plastic box (Table 20, symbol F)", "type": "in vivo, southern crabgrass (Digitaria ciliaris)", "conditions": "foliage application, AAH 320 g/ha, three weeks after application", "procedure,_shortened": "(§4)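 Sow seeds spot-wise in sterilized diluvial soil; cover with ~1.5 cm soil. Grow 14 days in greenhouse, 25° C. to 30° C. Spray foliage with emulsion diluted to predetermined amount. Rate effect after 3 weeks.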"}, "[19]": {"system": "green foxtail", "assay": "Test Example 5: herbicidal effect by foliage application, plastic box (Table 20, symbol G)", "type": "in vivo, green foxtail (Setaria viridis)", "conditions": "foliage application, AAH 320 g/ha, three weeks after application", "procedure,_shortened": "as §4"}, "[20]": {"system": "barnyard grass", "assay": "Test Example 5: herbicidal effect by foliage application, plastic box (Table 20, symbol H)", "type": "in vivo, barnyard grass (Echinochloa crus-galli)", "conditions": "foliage application, AAH 320 g/ha, three weeks after application", "procedure,_shortened": "as §4"}, "[21]": {"system": "wild oat", "assay": "Test Example 5: herbicidal effect by foliage application, plastic box (Table 20, symbol I)", "type": "in vivo, wild oat (Avena fatua)", "conditions": "foliage application, AAH 320 g/ha, three weeks after application", "procedure,_shortened": "as §4"}, "[22]": {"system": "blackgrass", "assay": "Test Example 5: herbicidal effect by foliage application, plastic box (Table 20, symbol J)", "type": "in vivo, blackgrass (Alopecurus myosuroides)", "conditions": "foliage application, AAH 320 g/ha, three weeks after application", "procedure,_shortened": "as §4"}, "[23]": {"system": "Italian ryegrass", "assay": "Test Example 5: herbicidal effect by foliage application, plastic box (Table 20, symbol K)", "type": "in vivo, Italian ryegrass (Lolium multiflorum)", "conditions": "foliage application, AAH 320 g/ha, three weeks after application", "procedure,_shortened": "as §4"}, "[24]": {"system": "windgrass", "assay": "Test Example 5: herbicidal effect by foliage application, plastic box (Table 20, symbol L)", "type": "in vivo, windgrass (Apera spica-venti)", "conditions": "foliage application, AAH 320 g/ha, three weeks after application", "procedure,_shortened": "as §4"}, "[25]": {"system": "velvetleaf", "assay": "Test Example 5: herbicidal effect by foliage application, plastic box (Table 20, symbol M)", "type": "in vivo, velvetleaf (Abutilon theophrasti)", "conditions": "foliage application, AAH 320 g/ha, three weeks after application", "procedure,_shortened": "as §4"}, "[26]": {"system": "redroot pigweed", "assay": "Test Example 5: herbicidal effect by foliage application, plastic box (Table 20, symbol N)", "type": "in vivo, redroot pigweed (Amaranthus retroflexus)", "conditions": "foliage application, AAH 320 g/ha, three weeks after application", "procedure,_shortened": "as §4"}, "[27]": {"system": "lambsquarters", "assay": "Test Example 5: herbicidal effect by foliage application, plastic box (Table 20, symbol O)", "type": "in vivo, lambsquarters (Chenopodium album)", "conditions": "foliage application, AAH 320 g/ha, three weeks after application", "procedure,_shortened": "as §4"}, "[28]": {"system": "chickweed", "assay": "Test Example 5: herbicidal effect by foliage application, plastic box (Table 20, symbol P)", "type": "in vivo, common chickweed (Stellaria media)", "conditions": "foliage application, AAH 320 g/ha, three weeks after application", "procedure,_shortened": "as §4"}, "[29]": {"system": "false cleavers", "assay": "Test Example 5: herbicidal effect by foliage application, plastic box (Table 20, symbol Q)", "type": "in vivo, false cleavers (Galium spurium)", "conditions": "foliage application, AAH 320 g/ha, three weeks after application", "procedure,_shortened": "as §4"}, "[30]": {"system": "persian speedwell", "assay": "Test Example 5: herbicidal effect by foliage application, plastic box (Table 20, symbol R)", "type": "in vivo, Persian speedwell (Veronica persica)", "conditions": "foliage application, AAH 320 g/ha, three weeks after application", "procedure,_shortened": "as §4"}}}
{"smiles": "Cc1nn(C)c(=O)c(-c2c(-c3ccccc3OCC3CC3)sc3ccccc23)c1O", "note": "[1-113]", "values": [{"measurement": "Herbicidal effect on A: late watergrass (grade 0-5)", "setting": "[1]", "value": "3 (Herbicidal rate of 40% or more and less than 70%)"}, {"measurement": "Herbicidal effect on B: Japanese bulrush (grade 0-5)", "setting": "[2]", "value": "0 (Herbicidal rate of 5% or less (almost no effect))"}, {"measurement": "Herbicidal effect on C: oval-leafed pondweed (grade 0-5)", "setting": "[3]", "value": "0 (Herbicidal rate of 5% or less (almost no effect))"}, {"measurement": "herbicidal effect on H (barnyard grass), rating 0-5", "setting": "[4]", "value": "4 (Herbicidal rate of 70% or more and less than 90%)"}, {"measurement": "herbicidal effect on D (Chinese sprangletop), rating 0-5", "setting": "[5]", "value": "0 (Herbicidal rate of 5% or less (almost no effect))"}, {"measurement": "herbicidal effect on E (rice flat sedge), rating 0-5", "setting": "[6]", "value": "3 (Herbicidal rate of 40% or more and less than 70%)"}, {"measurement": "F: southern crabgrass, herbicidal effect rating", "setting": "[7]", "value": "2 (Herbicidal rate of 20% or more and less than 40%)"}, {"measurement": "G: green foxtail, herbicidal effect rating", "setting": "[8]", "value": "1 (Herbicidal rate of 5% or more and less than 20%)"}, {"measurement": "H: barnyard grass, herbicidal effect rating", "setting": "[9]", "value": "3 (Herbicidal rate of 40% or more and less than 70%)"}, {"measurement": "I: wild oat, herbicidal effect rating", "setting": "[10]", "value": "1 (Herbicidal rate of 5% or more and less than 20%)"}, {"measurement": "K: Italian ryegrass, herbicidal effect rating", "setting": "[11]", "value": "0 (Herbicidal rate of 5% or less (almost no effect))"}, {"measurement": "L: windgrass, herbicidal effect rating", "setting": "[12]", "value": "0 (Herbicidal rate of 5% or less (almost no effect))"}, {"measurement": "M: velvetleaf, herbicidal effect rating", "setting": "[13]", "value": "0 (Herbicidal rate of 5% or less (almost no effect))"}, {"measurement": "N: redroot pigweed, herbicidal effect rating", "setting": "[14]", "value": "3 (Herbicidal rate of 40% or more and less than 70%)"}, {"measurement": "O: lambsquarters, herbicidal effect rating", "setting": "[15]", "value": "2 (Herbicidal rate of 20% or more and less than 40%)"}, {"measurement": "P: chickweed, herbicidal effect rating", "setting": "[16]", "value": "4 (Herbicidal rate of 70% or more and less than 90%)"}, {"measurement": "R: persian speedwell, herbicidal effect rating", "setting": "[17]", "value": "5 (Herbicidal rate of 90% or more (almost completely withered))"}, {"measurement": "F: southern crabgrass, herbicidal effect", "setting": "[18]", "value": "0 (Herbicidal rate of 5% or less (almost no effect))"}, {"measurement": "G: green foxtail, herbicidal effect", "setting": "[19]", "value": "0 (Herbicidal rate of 5% or less (almost no effect))"}, {"measurement": "H: barnyard grass, herbicidal effect", "setting": "[20]", "value": "1 (Herbicidal rate of 5% or more and less than 20%)"}, {"measurement": "I: wild oat, herbicidal effect", "setting": "[21]", "value": "1 (Herbicidal rate of 5% or more and less than 20%)"}, {"measurement": "J: blackgrass, herbicidal effect", "setting": "[22]", "value": "3 (Herbicidal rate of 40% or more and less than 70%)"}, {"measurement": "K: Italian ryegrass, herbicidal effect", "setting": "[23]", "value": "1 (Herbicidal rate of 5% or more and less than 20%)"}, {"measurement": "L: windgrass, herbicidal effect", "setting": "[24]", "value": "2 (Herbicidal rate of 20% or more and less than 40%)"}, {"measurement": "M: velvetleaf, herbicidal effect", "setting": "[25]", "value": "3 (Herbicidal rate of 40% or more and less than 70%)"}, {"measurement": "N: redroot pigweed, herbicidal effect", "setting": "[26]", "value": "0 (Herbicidal rate of 5% or less (almost no effect))"}, {"measurement": "O: lambsquarters, herbicidal effect", "setting": "[27]", "value": "0 (Herbicidal rate of 5% or less (almost no effect))"}, {"measurement": "P: chickweed, herbicidal effect", "setting": "[28]", "value": "5 (Herbicidal rate of 90% or more (almost completely withered))"}, {"measurement": "Q: false cleavers, herbicidal effect", "setting": "[29]", "value": "5 (Herbicidal rate of 90% or more (almost completely withered))"}, {"measurement": "R: persian speedwell, herbicidal effect", "setting": "[30]", "value": "5 (Herbicidal rate of 90% or more (almost completely withered))"}]}
